# Test results: patent publication US20190111137A1, “METHODS FOR ANTAGONISTS OF A NON-SELECTIVE CATION CHANNEL IN NEURAL CELLS” (University of Maryland, Baltimore, priority 2007, published 2019)
# Entries after “also recorded” stand apart in the source; their conditions may differ. Where two headings read alike, the source gives them in different places.
# Experiments:
# [1] = test system: rat model of contusion SCI; assay: Rat model of unilateral cervical spinal cord injury (SCI); type: in vivo; details: for neurobehavioral function (inclined plane, rearing) / progressive hemorrhagic necrosis / progressive hemorrhage: post-SCI
# [2] = target: T1, NCCa-ATP channel (Rattus norvegicus, UniProt Q09429+Q9ESQ5); details: cited from earlier work; for channel opening in the presence of ATP: K+ channel openers
# T1 construct: endogenous in cells; host or cells: freshly isolated native reactive astrocytes from the hypoxic gliotic capsule
# T1 sequence (Q09429 whole entry): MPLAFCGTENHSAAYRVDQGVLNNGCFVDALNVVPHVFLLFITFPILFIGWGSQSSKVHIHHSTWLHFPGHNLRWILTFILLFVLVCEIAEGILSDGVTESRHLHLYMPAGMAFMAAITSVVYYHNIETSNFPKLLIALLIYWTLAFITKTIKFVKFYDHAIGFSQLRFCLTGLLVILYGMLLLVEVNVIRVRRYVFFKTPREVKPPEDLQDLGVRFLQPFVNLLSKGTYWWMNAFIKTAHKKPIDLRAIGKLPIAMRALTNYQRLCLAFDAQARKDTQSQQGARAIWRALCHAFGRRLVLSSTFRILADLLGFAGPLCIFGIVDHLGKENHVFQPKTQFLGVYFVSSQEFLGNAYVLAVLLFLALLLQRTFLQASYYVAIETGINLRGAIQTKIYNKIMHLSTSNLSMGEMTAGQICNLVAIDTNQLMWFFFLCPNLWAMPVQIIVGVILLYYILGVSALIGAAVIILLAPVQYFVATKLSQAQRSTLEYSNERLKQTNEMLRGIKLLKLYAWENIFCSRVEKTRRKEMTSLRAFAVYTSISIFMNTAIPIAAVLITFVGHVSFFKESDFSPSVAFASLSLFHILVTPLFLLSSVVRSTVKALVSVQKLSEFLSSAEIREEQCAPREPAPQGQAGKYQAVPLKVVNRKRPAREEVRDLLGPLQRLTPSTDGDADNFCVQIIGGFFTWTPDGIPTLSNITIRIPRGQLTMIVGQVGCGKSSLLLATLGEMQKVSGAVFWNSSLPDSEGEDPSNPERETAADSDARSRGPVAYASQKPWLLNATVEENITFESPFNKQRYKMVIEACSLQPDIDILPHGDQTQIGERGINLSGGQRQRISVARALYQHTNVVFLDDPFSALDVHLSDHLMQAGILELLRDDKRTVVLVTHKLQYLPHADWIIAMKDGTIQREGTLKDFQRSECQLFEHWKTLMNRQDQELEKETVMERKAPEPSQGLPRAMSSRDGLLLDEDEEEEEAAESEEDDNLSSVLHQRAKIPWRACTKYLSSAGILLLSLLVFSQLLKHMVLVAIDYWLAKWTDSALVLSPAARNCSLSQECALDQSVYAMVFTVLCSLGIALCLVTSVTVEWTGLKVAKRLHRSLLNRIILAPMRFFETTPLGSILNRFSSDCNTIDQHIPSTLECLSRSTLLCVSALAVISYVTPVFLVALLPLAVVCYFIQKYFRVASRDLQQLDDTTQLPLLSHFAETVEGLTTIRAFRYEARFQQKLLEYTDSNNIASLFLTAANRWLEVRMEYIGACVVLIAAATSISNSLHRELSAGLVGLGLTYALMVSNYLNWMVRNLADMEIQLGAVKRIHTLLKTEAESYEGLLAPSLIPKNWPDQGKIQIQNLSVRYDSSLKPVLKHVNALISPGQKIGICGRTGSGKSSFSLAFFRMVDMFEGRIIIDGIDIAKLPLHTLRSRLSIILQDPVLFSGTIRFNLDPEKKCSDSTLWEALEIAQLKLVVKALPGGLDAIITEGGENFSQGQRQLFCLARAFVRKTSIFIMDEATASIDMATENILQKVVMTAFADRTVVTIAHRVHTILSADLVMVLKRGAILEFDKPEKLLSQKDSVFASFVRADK
# T1 sequence (Q9ESQ5 whole entry): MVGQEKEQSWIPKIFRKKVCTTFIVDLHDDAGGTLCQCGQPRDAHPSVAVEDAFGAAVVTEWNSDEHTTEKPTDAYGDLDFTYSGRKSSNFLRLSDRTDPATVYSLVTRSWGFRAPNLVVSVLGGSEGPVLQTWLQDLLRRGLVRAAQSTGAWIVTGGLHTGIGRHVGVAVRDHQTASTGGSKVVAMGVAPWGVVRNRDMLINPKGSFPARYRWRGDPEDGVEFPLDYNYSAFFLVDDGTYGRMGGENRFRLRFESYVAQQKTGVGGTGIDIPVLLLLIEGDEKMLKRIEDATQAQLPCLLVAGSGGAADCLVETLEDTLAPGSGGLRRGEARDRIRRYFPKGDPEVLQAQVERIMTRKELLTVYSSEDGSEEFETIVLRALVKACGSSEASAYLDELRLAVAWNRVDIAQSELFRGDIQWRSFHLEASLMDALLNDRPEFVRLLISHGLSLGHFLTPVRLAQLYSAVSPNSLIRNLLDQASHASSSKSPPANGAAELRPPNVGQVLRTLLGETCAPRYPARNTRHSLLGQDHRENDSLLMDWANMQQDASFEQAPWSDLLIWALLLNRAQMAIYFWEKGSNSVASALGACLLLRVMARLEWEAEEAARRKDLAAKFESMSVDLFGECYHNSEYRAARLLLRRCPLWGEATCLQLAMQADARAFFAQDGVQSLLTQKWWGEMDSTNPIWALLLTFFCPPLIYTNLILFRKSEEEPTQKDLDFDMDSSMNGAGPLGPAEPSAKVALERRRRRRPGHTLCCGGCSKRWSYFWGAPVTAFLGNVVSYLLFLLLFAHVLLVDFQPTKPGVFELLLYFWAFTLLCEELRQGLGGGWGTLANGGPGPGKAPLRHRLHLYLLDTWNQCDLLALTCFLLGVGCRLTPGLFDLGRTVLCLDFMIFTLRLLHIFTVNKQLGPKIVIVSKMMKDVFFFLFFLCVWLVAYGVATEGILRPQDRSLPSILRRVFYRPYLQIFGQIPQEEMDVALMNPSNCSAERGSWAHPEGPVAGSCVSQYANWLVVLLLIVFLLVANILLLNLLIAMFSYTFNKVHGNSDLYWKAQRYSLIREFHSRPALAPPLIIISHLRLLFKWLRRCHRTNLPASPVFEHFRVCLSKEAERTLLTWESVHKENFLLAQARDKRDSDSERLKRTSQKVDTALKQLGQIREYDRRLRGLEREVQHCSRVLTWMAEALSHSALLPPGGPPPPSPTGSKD
# [3] = target: T1, NCCa-ATP channel; assay: Patch clamp of NCCa-ATP channel in freshly isolated native reactive astrocytes; type: cell-based; details: for EC50: read-out: [ATP]1 EC50
# Method: (§1) PATCH CLAMP. […] In general, recordings are carried out using a Cs^+ rich solution, to preclude recording activity from any K^+ channel including KATP channel.
# [4] = test system: TRPM4 channel; details: cited from earlier work
# [5] = test system: rodent model of transient focal ischemia; details: pre- or post-ischemic administration; cited from earlier work
# [6] = test system: isolated retina of chick embryo; details: cited from earlier work
# [7] = test system: permanent middle cerebral artery occlusion (MCAO) model; details: cited from earlier work
# [8] = test system: temporary MCAO model; details: cited from earlier work
# [9] = test system: global cerebral ischemia in gerbils; details: in vivo; cited from earlier work
# [10] = target: T2, human TRP3 (Homo sapiens, UniProt Q13507); details: high concentrations; cited from earlier work
# T2 construct: expressed in transfected cells
# T2 sequence (Q13507 1-848 isoform Q13507-3): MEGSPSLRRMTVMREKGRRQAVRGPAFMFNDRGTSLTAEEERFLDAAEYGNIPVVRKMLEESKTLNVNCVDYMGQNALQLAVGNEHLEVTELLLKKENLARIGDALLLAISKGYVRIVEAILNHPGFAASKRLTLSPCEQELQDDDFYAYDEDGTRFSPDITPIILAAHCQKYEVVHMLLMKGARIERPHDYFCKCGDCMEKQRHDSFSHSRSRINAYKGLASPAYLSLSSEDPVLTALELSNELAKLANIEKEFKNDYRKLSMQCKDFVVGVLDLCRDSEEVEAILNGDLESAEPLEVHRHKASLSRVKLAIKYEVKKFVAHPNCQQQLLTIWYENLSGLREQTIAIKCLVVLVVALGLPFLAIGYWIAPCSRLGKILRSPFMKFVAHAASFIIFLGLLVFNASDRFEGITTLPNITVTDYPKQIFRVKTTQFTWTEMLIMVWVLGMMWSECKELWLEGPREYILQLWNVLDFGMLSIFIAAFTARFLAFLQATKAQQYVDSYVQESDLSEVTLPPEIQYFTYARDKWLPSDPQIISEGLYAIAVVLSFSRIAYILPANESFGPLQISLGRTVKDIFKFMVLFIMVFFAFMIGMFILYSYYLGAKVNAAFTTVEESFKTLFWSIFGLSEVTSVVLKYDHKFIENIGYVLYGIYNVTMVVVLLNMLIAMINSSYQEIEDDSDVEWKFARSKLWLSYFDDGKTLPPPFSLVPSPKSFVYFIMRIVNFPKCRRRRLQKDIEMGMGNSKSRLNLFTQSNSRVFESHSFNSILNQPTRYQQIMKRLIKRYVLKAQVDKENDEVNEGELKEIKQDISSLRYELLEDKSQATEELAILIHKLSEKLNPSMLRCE
# [11] = target: receptor-mediated Ca^2+ entry; details: cited from earlier work
# [12] = test system: endothelial cells of the BBB; details: cited from earlier work
# [13] = target: T3, NCCa-ATP channel (Mus musculus, UniProt B2RUS7+Q7TN37); assay: Patch clamp of bEnd.3 cells exposed to TNFα, ATP depleted with Na azide plus 2-DG; type: cell-based, murine; details: TNFα-treated bEnd.3 cells; for block of single channel activity (inside-out patch): Cs+ as the only permeant cation
# T3 construct: exposure to TNFα causes expression of a new channel that is not present before exposure to TNFα; host or cells: bEnd.3 cells exposed to TNFα
# Method: (§2) (iii) Pharmacological block of SUR1 and TRPM4/patch clamp.
# (§3) Patch clamp was performed using a nystatin-perforated patch technique to maintain the metabolic integrity of the cells.
# (§4) Single channel recordings were performed using inside-out patches, with Cs^+ as the only permeant cation.
# (§5) Apart from direct application of PIP2 (FIG. 24A), PIP2 levels can be augmented by inhibiting spontaneously active PLC.
# as §1
# [14] = target: T4, TRPM2 (Homo sapiens, UniProt O94759); details: activated by extracellular H2O2; cited from earlier work
# T4 construct: host or cells: Chinese hamster ovary cells
# T4 sequence (O94759 whole entry): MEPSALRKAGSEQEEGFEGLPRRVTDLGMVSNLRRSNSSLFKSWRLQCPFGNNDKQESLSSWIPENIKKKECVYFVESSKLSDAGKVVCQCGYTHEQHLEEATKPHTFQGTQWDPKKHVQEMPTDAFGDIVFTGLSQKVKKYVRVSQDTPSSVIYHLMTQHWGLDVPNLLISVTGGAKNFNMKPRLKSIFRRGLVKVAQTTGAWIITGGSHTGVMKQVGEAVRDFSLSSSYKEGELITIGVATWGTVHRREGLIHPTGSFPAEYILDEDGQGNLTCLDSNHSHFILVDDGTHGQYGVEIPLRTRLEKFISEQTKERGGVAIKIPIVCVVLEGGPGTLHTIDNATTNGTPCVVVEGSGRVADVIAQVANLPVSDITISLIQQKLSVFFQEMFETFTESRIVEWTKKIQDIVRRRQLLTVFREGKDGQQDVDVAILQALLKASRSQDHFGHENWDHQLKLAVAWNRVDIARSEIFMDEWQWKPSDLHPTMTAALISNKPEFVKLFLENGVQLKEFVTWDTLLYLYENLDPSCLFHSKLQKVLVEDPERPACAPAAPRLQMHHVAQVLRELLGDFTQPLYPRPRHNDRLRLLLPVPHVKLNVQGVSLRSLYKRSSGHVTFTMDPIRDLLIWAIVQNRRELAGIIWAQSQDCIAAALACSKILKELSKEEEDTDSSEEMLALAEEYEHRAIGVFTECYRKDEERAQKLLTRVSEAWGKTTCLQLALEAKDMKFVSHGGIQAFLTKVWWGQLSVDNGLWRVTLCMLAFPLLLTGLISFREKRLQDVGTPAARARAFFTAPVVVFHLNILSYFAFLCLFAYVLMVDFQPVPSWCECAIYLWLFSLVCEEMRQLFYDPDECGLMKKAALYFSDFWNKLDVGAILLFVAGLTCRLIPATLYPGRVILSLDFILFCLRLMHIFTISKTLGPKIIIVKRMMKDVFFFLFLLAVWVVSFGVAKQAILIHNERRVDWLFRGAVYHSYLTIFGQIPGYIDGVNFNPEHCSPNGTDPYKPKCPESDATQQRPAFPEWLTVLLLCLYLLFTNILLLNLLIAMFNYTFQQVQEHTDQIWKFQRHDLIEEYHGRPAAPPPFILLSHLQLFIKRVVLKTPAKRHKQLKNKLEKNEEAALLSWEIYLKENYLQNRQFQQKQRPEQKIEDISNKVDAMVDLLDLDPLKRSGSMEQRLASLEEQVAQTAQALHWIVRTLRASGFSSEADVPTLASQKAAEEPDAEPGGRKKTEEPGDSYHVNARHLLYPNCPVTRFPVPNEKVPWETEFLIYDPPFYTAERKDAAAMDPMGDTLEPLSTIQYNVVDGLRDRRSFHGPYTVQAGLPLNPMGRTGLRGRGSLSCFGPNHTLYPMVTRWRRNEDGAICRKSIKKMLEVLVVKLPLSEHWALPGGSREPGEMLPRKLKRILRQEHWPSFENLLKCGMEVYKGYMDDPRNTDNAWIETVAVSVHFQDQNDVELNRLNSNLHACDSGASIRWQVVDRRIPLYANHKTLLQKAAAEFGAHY
# [15] = test system: rat model of ischemic stroke; details: given 30 min after initiation of permanent MCAO; cited from earlier work
# [16] = test system: NCCa-ATP channel; assay: Patch clamp of bEnd.3 cells exposed to TNFα, ATP depleted with Na azide plus 2-DG; type: cell-based, murine
# Method: as §2, §3, §4, §5, §1
# [17] = test system: rat model of contusion SCI; details: as reported (Simard et al., 2007); cited from earlier work
# [18] = test system: reactive astrocytes; details: without ATP depletion; cited from earlier work
# [19] = Membrane Preparation derived from freshly isolated native reactive astrocytes
# [20] = after 6 h of vascular occlusion
compound,measurement,setting,value
"S=C(S)N1CCCC1 [PDTC, pyrrolidine dithiocarbamate]",TRPM4 expression in cord (immunolabeling),[1]; 24 h post-SCI,significantly decreased; also recorded: reduces TRPM4 expression
same,"neurobehavioral function (inclined plane, rearing)",[1],improved functional outcome
CCCCNC(=O)NS(=O)(=O)c1ccc(C)cc1 [tolbutamide],EC50,"[2]; pH 7.4, read-out: block of NCCa-ATP channel opening (EC50)",16100 nM
Nc1ncnc2c1ncn2[C@@H]1O[C@H](COP(=O)(O)O)[C@@H](O)[C@H]1O [AMP],"ADP, AMP block",[2]; SUR1-regulated NCCa-ATP,no
same,effect of ADP or AMP on channel opening,[2],unaffected
same,ADP AMP channel effect,[3]; [19],No channel
same,ADP AMP channel effect,[3]; Reactive Astrocytes,No channel
same,"ADP, AMP block",[4],yes
Cc1cccc(Nc2ccccc2C(=O)O)c1C [mefenamic acid],neuroprotection (necrosis in cortex and subcortical structures),[5],no neuroprotection
same,protection of the retina against ischemic or excitotoxic insult,[6],protected
"COc1cc2c(cc1OC)C(C(C(=O)N(CCc1ccc(OC)c(OC)c1OC)CCc1ccc(OC)c(OC)c1OC)c1ccccc1)=NCC2 (racemic) [pinokalant, (R,S)-(3,4-dihydro-6,7-dimethoxy-isoquinoline-1-yl)-2-phenyl-N,N-di[2-(2,3,4-trimethoxyphenyl)ethyl]-acetamide]",blood flow,[7]; [20],significantly higher
same,"volume of ATP-depleted and morphologically injured tissue (infarct core), smaller",[7]; [20],60-70%
same,decrease of ADC lesion volume,[7]; during the initial 6 h of vascular occlusion,approximately 20%
same,size of ischemic penumbra,[7]; volume of severely acidic tissue,does not reduce
same,DWI-derived infarct volume,[8]; 4 h after MCAO,significantly smaller
same,neurological scores,[8]; 24 h,significantly better
same,TTC-derived infarct volume,[8]; postmortem,significantly attenuated
same,size of the ischemic core,"[8]; rat, in vivo",significantly smaller
Oc1cc2c(cc1O)CN(C(=S)NCCc1ccc(Cl)cc1)CCC2 [capsazepine],effect on rimonabant-induced and capsaicin-induced neuroprotective effects,[9],reversed
Cc1ccc(Cl)c(Nc2ccccc2C(=O)O)c1Cl [meclofenamic acid],protection of the retina against ischemic or excitotoxic insult,[6],protected
Nc1ncnc2c1ncn2[C@@H]1O[C@H](COP(=O)(O)OP(=O)(O)O)[C@@H](O)[C@H]1O [ADP],"ADP, AMP block",[2]; SUR1-regulated NCCa-ATP,no
same,effect of ADP or AMP on channel opening,[2],unaffected
same,ADP AMP channel effect,[3]; [19],No channel
same,ADP AMP channel effect,[3]; Reactive Astrocytes,No channel
same,"ADP, AMP block",[4],yes
COc1cc(CNC(=O)CCCC/C=C/C(C)C)ccc1O [capsaicin],"electroencephalographic changes, hyperlocomotion and memory impairment induced by global ischemia",[9],antagonize
same,survival of pyramidal cells in the CA1 subfield of the hippocampus,[9],progressive survival
"COc1ccc(CCCOC(Cn2ccnc2)c2ccc(OC)cc2)cc1.Cl (stereo not drawn) [SKF 96365, 1-(beta[3-(4-methoxy-phenyl)propoxy]-4-methoxyphenethyl)-1H-imidazole hydrochloride]",increased Ca^2+ entry in TRP3-expressing cells,[10],blocked
same,IC50,[11],~10000 nM
same,expression of the tight junction protein occludin,[12]; after hypoxic/aglycemic stress,increased
same,hypoxia-induced BBB disruption,[12]; normoglycemia,protective
Nc1ncnc2c1ncn2[C@@H]1O[C@H](COP(=O)(O)OP(=O)(O)OP(=O)(O)O)[C@@H](O)[C@H]1O [ATP],EC50,"[2]; SUR1-regulated NCCa-ATP, read-out: ATP block (EC50)",800 nM
same,EC50,[2]; read-out: Channel opening blocked by ATP (EC50),790 nM
same,EC50,[3]; [19],790 nM
same,EC50,[3]; Reactive Astrocytes,790 nM
same,block of single channel activity (inside-out patch),[13],reversibly blocked
same,EC50,[4]; read-out: ATP block (EC50),130 to 1700 nM
CC(N/C(=N\C#N)Nc1ccncc1)C(C)(C)C (centres unmarked) [pinacidil],channel opening in the presence of ATP,[2],not
O=C(O)c1ccccc1Nc1cccc(C(F)(F)F)c1 [flufenamic acid],block of current activated by ATP depletion (whole cell),[13],blocked; also recorded: also blocks this current
same,block of current activated by ATP depletion (whole cell),[13]; 100 μM flufenamic acid,blocked
same,block of single channel activity (inside-out patch),[13],blocked
same,block of current activated by ATP depletion (whole cell),[13]; listed as FFA,blocked
same,amount of blood in cord homogenates,"[1]; 24-hr post-SCI, post-treatment",significant decrease in blood
same,hemorrhage in cords (surface and sections),[1]; 24 h post-SCI,less hemorrhage
same,"neurobehavioral function (inclined plane, rearing)",[1],improves neurological function; also recorded: improved
same,progressive hemorrhagic necrosis / progressive hemorrhage,[1],reduces progressive hemorrhagic necrosis; also recorded: blocked
same,"neurobehavioral function (inclined plane, rearing)",[1]; listed as FFA,improve neurobehavioral function; also recorded: significantly better performance than controls
same,progressive hemorrhagic necrosis / progressive hemorrhage,[1]; listed as FFA,prevented
same,capillary integrity (vimentin immunolabeling),"[1]; region of injury post-SCI, listed as FFA",elongated capillaries; also recorded: elongated and more intact
same,inhibition of TRPM2,[14],inhibits
same,protection of the retina against ischemic or excitotoxic insult,[6],protected
Cc1c(C(=O)NN2CCCCC2)nn(-c2ccc(Cl)cc2Cl)c1-c1ccc(Cl)cc1 [rimonabant],reduction of infarct volume,[15],~40%
same,"electroencephalographic changes, hyperlocomotion and memory impairment induced by global ischemia",[9],antagonize
same,survival of pyramidal cells in the CA1 subfield of the hippocampus,[9],progressive survival
COc1ccc2c(c1)CC[C@@H]1[C@@H]2CC[C@]2(C)[C@@H](NCCCCCCN3C(=O)C=CC3=O)CC[C@@H]12 [U73122],channel activation by inhibiting phospholipase C (whole cell),[16]; TNFα-stimulated bEnd.3 cells,activated an ohmic current; also recorded: channel activation
same,channel activation by inhibiting phospholipase C (whole cell),[16]; control bEnd.3 cells,without effect
CCOc1cc(CC(=O)N[C@@H](CC(C)C)c2ccccc2N2CCCCC2)ccc1C(=O)O [repaglinide],neurological function,[17],improves neurological function
same,progressive hemorrhagic necrosis,[17],reduces progressive hemorrhagic necrosis
PIP2,PIP2 activation,"[3]; SUR1-regulated NCCa-ATP, unpublished observations",yes*
same,channel activity after addition of PIP2,"[3]; inside-out patch, high concentration of ATP (10 mM) on the cytoplasmic side",robust channel activation; also recorded: release of inhibition
same,PIP2 activation,[4],yes
[Ca+2] [Ca^2+],EC50,"[2]; SUR1-regulated NCCa-ATP, read-out: Ca^2+ activation (EC50)",120 to 1500 nM
same,Activation [Ca^2+],[3]; [19],<1.0 µM
same,Activation [Ca^2+],[3]; Reactive Astrocytes,<1.0 µM
same,EC50,[4]; read-out: Ca^2+ activation (EC50),1300 nM
CC1(C)Oc2ccc(C#N)cc2C(N2CCCC2=O)C1O (centres unmarked) [cromakalin],channel opening in the presence of ATP,[2],not
CC1=NS(=O)(=O)c2cc(Cl)ccc2N1 [diazoxide],channel opening in the presence of ATP,[2],increased
same,bleb formation,[18],reproduced
